Converted amounts (≈) assume the structure as drawn.
Tests used:
[1] = tested on: ovary cancer and cancers of thymus and others; conditions: cited from earlier work
[2] = solubility in physiological saline; format: physicochemical
Experimental: Solubility: 5 mg/ml (physiological saline)
In the tables, solubility means a solubility in physiological saline.

BDF1 mice = assay: toxicity, intraperitoneal administration to BDF1 mice, 20 days observation; format: in vivo, mouse; conditions: 25 mg/kg, 4 times once a day, observed for 20 days
Text: Further, the taxol derivative of the present invention or a pharmaceutically acceptable salt thereof has low toxicity and high water solubility.

various kinds of cancers = conditions: cited from earlier work
[3] = cited from earlier work
[4] = methanesulfonate, medium not printed at the place

SMILES	solubility ([2]; physiological saline)	also measured
CC(=O)O[C@@]12CO[C@@H]1C[C@H](O)[C@@]1(C)C(=O)[C@H](O)C3=C(C)[C@@H](OC(=O)[C@H](O)[C@@H](NC(=O)OC(C)(C)C)c4ccccc4)C[C@@](O)([C@@H](OC(=O)c4ccccc4)[C@H]21)C3(C)C [4α-acetoxy-2α-benzoyloxy-5β,20-epoxy-1β,7β,10β-trihydroxy-13α-[(2R,3S)-3-phenyl-3-(t-butoxycarbonylamino)-2-hydroxypropionyloxy]-tax-11-en-9-one]		antitumor activities [1]: excellent antitumor activities
CCOC(=O)[C@@H](N)CC(=O)OCC(=O)O[C@@H](C(=O)O[C@H]1C[C@@]2(O)[C@@H](OC(=O)c3ccccc3)[C@@H]3[C@]4(OC(C)=O)CO[C@@H]4C[C@H](O)[C@@]3(C)C(=O)[C@H](O)C(=C1C)C2(C)C)[C@@H](NC(=O)OC(C)(C)C)c1ccccc1 [Example 32, 4α-acetoxy-13α-{(2R,3S)-3-tert-butoxycarbonylamino-2-[((3S)-3-amino-3-ethoxycarbonylpropionyloxy)acetoxy]-3-phenylpropionyloxy}-2α-benzoyloxy-5β,20-epoxy-1β,7β,10β-trihydroxytax-11-en-9-one.methanesulfonate]	5000 µg/mL	solubility [2, 4]: 5000 µg/mL; death (BDF1 mice): no case of death was observed
CC(=O)O[C@@]12CO[C@@H]1C[C@H](O)[C@@]1(C)C(=O)[C@H](O)C3=C(C)[C@@H](OC(=O)[C@H](OC(=O)COC(=O)[C@@H]4CCCN4)[C@@H](NC(=O)OC(C)(C)C)c4ccccc4)C[C@@](O)([C@@H](OC(=O)c4ccccc4)[C@H]21)C3(C)C [Example 33]	1400 µg/mL (≈ 1450 µM)	
CC(=O)O[C@@]12CO[C@@H]1C[C@H](O)[C@@]1(C)C(=O)[C@H](O)C3=C(C)[C@@H](OC(=O)[C@H](OC(=O)COC(=O)CNC(=O)CN)[C@@H](NC(=O)OC(C)(C)C)c4ccccc4)C[C@@](O)([C@@H](OC(=O)c4ccccc4)[C@H]21)C3(C)C [Example 34]	10000 µg/mL (≈ 10200 µM)	
COCCOC(=O)[C@@H](N)CC(=O)OCC(=O)O[C@@H](C(=O)O[C@H]1C[C@@]2(O)[C@@H](OC(=O)c3ccccc3)[C@@H]3[C@]4(OC(C)=O)CO[C@@H]4C[C@H](O)[C@@]3(C)C(=O)[C@H](O)C(=C1C)C2(C)C)[C@@H](NC(=O)OC(C)(C)C)c1ccccc1 [Example 35, 4α-acetoxy-13α-{(2R,3S)-3-tert-butoxycarbonylamino-2-[((3S)-3-amino-3-(2-methoxyethoxycarbonyl)propionyloxy)acetoxy]-3-phenylpropionyloxy}-2α-benzoyloxy-5β,20-epoxy-1β,7β,10β-trihydroxytax-11-en-9-one.methanesulfonate]	10000 µg/mL	solubility [2, 4]: 10000 µg/mL; death (BDF1 mice): no case of death was observed
CC(=O)O[C@@]12CO[C@@H]1C[C@H](O)[C@@]1(C)C(=O)[C@H](O)C3=C(C)[C@@H](OC(=O)[C@H](OC(=O)COC(=O)[C@H](C)N)[C@@H](NC(=O)OC(C)(C)C)c4ccccc4)C[C@@](O)([C@@H](OC(=O)c4ccccc4)[C@H]21)C3(C)C [Example 36]	2000 µg/mL (≈ 2130 µM)	
CCOC(=O)[C@@H](N)CC(=O)OCCCCC(=O)O[C@@H](C(=O)O[C@H]1C[C@@]2(O)[C@@H](OC(=O)c3ccccc3)[C@@H]3[C@]4(OC(C)=O)CO[C@@H]4C[C@H](O)[C@@]3(C)C(=O)[C@H](O)C(=C1C)C2(C)C)[C@@H](NC(=O)OC(C)(C)C)c1ccccc1 [Example 37]	1000 µg/mL (≈ 951 µM)	
CC(=O)O[C@@]12CO[C@@H]1C[C@H](O)[C@@]1(C)C(=O)[C@H](O)C3=C(C)[C@@H](OC(=O)[C@H](OC(=O)COC(=O)CCN)[C@@H](NC(=O)c4ccccc4)c4ccccc4)C[C@@](O)([C@@H](OC(=O)c4ccccc4)[C@H]21)C3(C)C [Example 38]	1000 µg/mL (≈ 1060 µM)	
CCOC(=O)[C@@H](N)CC(=O)OCC(=O)O[C@@H](C(=O)O[C@H]1C[C@@]2(O)[C@@H](OC(=O)c3ccccc3)[C@@H]3[C@]4(OC(C)=O)CO[C@@H]4C[C@H](O)[C@@]3(C)C(=O)[C@H](O)C(=C1C)C2(C)C)[C@@H](NC(=O)c1ccco1)c1ccccc1 [Example 40]	6000 µg/mL (≈ 5980 µM)	
CCOC(=O)[C@@H](N)CC(=O)OCC(=O)O[C@@H](C(=O)O[C@H]1C[C@@]2(O)[C@@H](OC(=O)c3ccccc3)[C@@H]3[C@]4(OC(C)=O)CO[C@@H]4C[C@H](O)[C@@]3(C)C(=O)[C@H](O)C(=C1C)C2(C)C)[C@@H](NC(=O)c1cccs1)c1ccccc1 [Example 41]	700 µg/mL (≈ 687 µM)	
CCOC(=O)[C@@H](N)CC(=O)OCC(=O)O[C@@H](C(=O)O[C@H]1C[C@@]2(O)[C@@H](OC(=O)c3ccccc3)[C@@H]3[C@]4(OC(C)=O)CO[C@@H]4C[C@H](O)[C@@]3(C)C(=O)[C@H](O)C(=C1C)C2(C)C)[C@@H](NC(=O)CCCCCl)c1ccccc1 [Example 42]	5000 µg/mL (≈ 4870 µM)	
CCOC(=O)[C@@H](N)CC(=O)OCC(=O)O[C@@H](C(=O)O[C@H]1C[C@@]2(O)[C@@H](OC(=O)c3ccccc3)[C@@H]3[C@]4(OC(C)=O)CO[C@@H]4C[C@H](O)[C@@]3(C)C(=O)[C@H](O)C(=C1C)C2(C)C)[C@@H](NC(=O)c1cc(OC)ccc1OC)c1ccccc1 [Example 43]	500 µg/mL (≈ 466 µM)	
CCOC(=O)N[C@@H](c1ccccc1)[C@@H](OC(=O)COC(=O)C[C@H](N)C(=O)OCC)C(=O)O[C@H]1C[C@@]2(O)[C@@H](OC(=O)c3ccccc3)[C@@H]3[C@]4(OC(C)=O)CO[C@@H]4C[C@H](O)[C@@]3(C)C(=O)[C@H](O)C(=C1C)C2(C)C [Example 44]	4000 µg/mL (≈ 4080 µM)	
CCOC(=O)[C@@H](N)CC(=O)OCC(=O)O[C@@H](C(=O)O[C@H]1C[C@@]2(O)[C@@H](OC(=O)c3ccccc3)[C@@H]3[C@]4(OC(C)=O)CO[C@@H]4C[C@H](O)[C@@]3(C)C(=O)[C@H](O)C(=C1C)C2(C)C)[C@@H](NC(=O)OCC1C(C)(C)C1(F)F)c1ccccc1 (some centres unmarked) [Example 45]	600 µg/mL (≈ 560 µM)	
CCOC(=O)[C@@H](N)CC(=O)OCC(=O)O[C@@H](C(=O)O[C@H]1C[C@@]2(O)[C@@H](OC(=O)c3ccccc3)[C@@H]3[C@]4(OC(C)=O)CO[C@@H]4C[C@H](O)[C@@]3(C)C(=O)[C@H](O)C(=C1C)C2(C)C)[C@@H](NC(=O)OCC(F)(F)F)c1ccccc1 [Example 46]	5000 µg/mL (≈ 4830 µM)	
CCOC(=O)[C@@H](N)CC(=O)OCC(=O)O[C@@H](C(=O)O[C@H]1C[C@@]2(O)[C@@H](OC(=O)c3ccccc3)[C@@H]3[C@]4(OC(C)=O)CO[C@@H]4C[C@H](O)[C@@]3(C)C(=O)[C@H](O)C(=C1C)C2(C)C)[C@@H](NC(=O)OCCOC)c1ccccc1 [Example 47]	> 10000 µg/mL	
CCOC(=O)[C@@H](N)CC(=O)OCC(=O)O[C@@H](C(=O)O[C@H]1C[C@@]2(O)[C@@H](OC(=O)c3ccccc3)[C@@H]3[C@]4(OC(C)=O)CO[C@@H]4C[C@H](O)[C@@]3(C)C(=O)[C@H](O)C(=C1C)C2(C)C)[C@@H](NC(=O)OCC1CCC1)c1ccccc1 [Example 48]	1000 µg/mL (≈ 979 µM)	
CCOC(=O)[C@@H](N)CC(=O)OCC(=O)O[C@@H](C(=O)O[C@H]1C[C@@]2(O)[C@@H](OC(=O)c3ccccc3)[C@@H]3[C@]4(OC(C)=O)CO[C@@H]4C[C@H](O)[C@@]3(C)C(=O)[C@H](O)C(=C1C)C2(C)C)[C@@H](NC(=O)OCC1CC1)c1ccccc1 [Example 49]	5000 µg/mL (≈ 4960 µM)	
CCOC(=O)[C@@H](N)CC(=O)OCC(=O)O[C@@H](C(=O)O[C@H]1C[C@@]2(O)[C@@H](OC(=O)c3ccccc3)[C@@H]3[C@]4(OC(C)=O)CO[C@@H]4C[C@H](O)[C@@]3(C)C(=O)[C@H](O)C(=C1C)C2(C)C)[C@@H](NC(=O)OC(C)(C)C)c1ccc(F)cc1F [Example 52]	1000 µg/mL (≈ 957 µM)	
CCOC(=O)[C@@H](N)CC(=O)OCC(=O)O[C@@H](C(=O)O[C@H]1C[C@@]2(O)[C@@H](OC(=O)c3ccccc3)[C@@H]3[C@]4(OC(C)=O)CO[C@@H]4C[C@H](O)[C@@]3(C)C(=O)[C@H](O)C(=C1C)C2(C)C)[C@@H](NC(=O)OC(C)(C)C)c1ccc(OC)cc1 [Example 56]	15000 µg/mL (≈ 14400 µM)	
COCCOC(=O)[C@@H](N)CC(=O)OCC(=O)O[C@@H](C(=O)O[C@H]1C[C@@]2(O)[C@@H](OC(=O)c3ccccc3)[C@@H]3[C@]4(OC(C)=O)CO[C@@H]4C[C@H](O)[C@@]3(C)C(=O)[C@H](O)C(=C1C)C2(C)C)[C@@H](NC(=O)OC(C)(C)C)c1ccc(F)cc1F [Example 57]	5000 µg/mL (≈ 4650 µM)	
CCOC(=O)[C@@H](N)CC(=O)OCC(=O)O[C@@H](C(=O)O[C@H]1C[C@@]2(O)[C@@H](OC(=O)c3ccccc3)[C@@H]3[C@]4(OC(C)=O)CO[C@@H]4C[C@H](O)[C@@]3(C)C(=O)[C@H](OC(C)=O)C(=C1C)C2(C)C)[C@@H](NC(=O)c1ccccc1)c1ccccc1 [Example 59, 4α,10β-diacetoxy-13α-{(2R,3S)-3-benzoylamino-2-[((3S)-3-amino-3-ethoxycarbonylpropionyloxy)acetoxy]-3-phenylpropionyloxy}-2α-benzoyloxy-5β,20-epoxy-1β,7β-dihydroxytax-l 1-en-9-one.methanesulfonate]	300 µg/mL	
CC(=O)O[C@H]1C(=O)[C@@]2(C)[C@H]([C@H](OC(=O)c3ccccc3)[C@]3(O)C[C@H](OC(=O)[C@H](O)[C@@H](NC(=O)c4ccccc4)c4ccccc4)C(C)=C1C3(C)C)[C@]1(OC(C)=O)CO[C@@H]1C[C@@H]2O [taxol, 4α,10β-diacetoxy-2α-benzoyloxy-5β,20-epoxy-1β,7β-dihydroxy-13α-[(2R,3S)-3-phenyl-3-benzoylamino-2-hydroxypropionyloxy]-tax-11-en-9-one]		anti-tumor activity (various kinds of cancers): excellent anti-tumor activity; antitumor activities [1]: excellent antitumor activities; water-solubility [3]: ≤ 4 µg/mL

— patent publication US5677470A, “Baccatin derivatives and processes for preparing the same” (Tanabe Seiyaku Co., Ltd., priority 1994, dated 1997)
